From ChEMBL document CHEMBL3046358, “Multiple Pro-197 substitutions in the acetolactate synthase of rigid ryegrass (Lolium rigidum) and their impact on chlorsulfuron activity and plant growth” (Crop Prot, 2012)

How the values were obtained:
Format in all cases: functional
Lolium rigidum [1] = test: Herbicidal activity against Lolium rigidum accession A05 assessed as fresh weight reduction applied at 1 times pre-emergence recommended rate relative to untreated control; design: scale not given: the % may be the effect or the level left
Lolium rigidum [2] = test: Herbicidal activity against Lolium rigidum accession A15 assessed as emergence rate applied at 1 times pre-emergence recommended rate relative to untreated control
Lolium rigidum [3] = test: Herbicidal activity against Lolium rigidum accession A02 assessed as fresh weight reduction applied at 1 times pre-emergence recommended rate relative to untreated control; design: scale not given: the % may be the effect or the level left
Lolium rigidum [4] = test: Herbicidal activity against Lolium rigidum accession A14 assessed as emergence rate applied at 1 times pre-emergence recommended rate relative to untreated control
Lolium rigidum [5] = test: Herbicidal activity against Lolium rigidum accession A09 assessed as emergence rate applied at 1 times pre-emergence recommended rate relative to untreated control
Lolium rigidum [6] = test: Herbicidal activity against Lolium rigidum accession A06 assessed as emergence rate applied at 1 times pre-emergence recommended rate relative to untreated control
Lolium rigidum [7] = test: Herbicidal activity against Lolium rigidum accession A08 assessed as emergence rate applied at 1 times pre-emergence recommended rate relative to untreated control
Lolium rigidum [8] = test: Herbicidal activity against Lolium rigidum accession A01 assessed as emergence rate applied at 1 times pre-emergence recommended rate relative to untreated control
Lolium rigidum [9] = test: Herbicidal activity against Lolium rigidum accession A11 assessed as emergence rate applied at 1 times pre-emergence recommended rate relative to untreated control
Lolium rigidum [10] = test: Herbicidal activity against Lolium rigidum accession A12 assessed as fresh weight reduction applied at 1 times pre-emergence recommended rate relative to untreated control; design: scale not given: the % may be the effect or the level left
Lolium rigidum [11] = test: Herbicidal activity against Lolium rigidum accession A01 assessed as fresh weight reduction applied at 1 times pre-emergence recommended rate relative to untreated control; design: scale not given: the % may be the effect or the level left
Lolium rigidum [12] = test: Herbicidal activity against Lolium rigidum accession A14 assessed as fresh weight reduction applied at 1 times pre-emergence recommended rate relative to untreated control; design: scale not given: the % may be the effect or the level left
Lolium rigidum [13] = test: Herbicidal activity against Lolium rigidum accession A05 assessed as emergence rate applied at 1 times pre-emergence recommended rate relative to untreated control
Lolium rigidum [14] = test: Herbicidal activity against Lolium rigidum accession A12 assessed as emergence rate applied at 1 times pre-emergence recommended rate relative to untreated control
Lolium rigidum [15] = test: Herbicidal activity against Lolium rigidum accession A03 assessed as fresh weight reduction applied at 1 times pre-emergence recommended rate relative to untreated control; design: scale not given: the % may be the effect or the level left
Lolium rigidum [16] = test: Herbicidal activity against Lolium rigidum accession A09 assessed as fresh weight reduction applied at 1 times pre-emergence recommended rate relative to untreated control; design: scale not given: the % may be the effect or the level left
Lolium rigidum [17] = test: Herbicidal activity against Lolium rigidum accession A11 assessed as fresh weight reduction applied at 1 times pre-emergence recommended rate relative to untreated control; design: scale not given: the % may be the effect or the level left
Lolium rigidum [18] = test: Herbicidal activity against Lolium rigidum accession A03 assessed as emergence rate applied at 1 times pre-emergence recommended rate relative to untreated control
Lolium rigidum [19] = test: Herbicidal activity against Lolium rigidum accession A13 assessed as emergence rate applied at 1 times pre-emergence recommended rate relative to untreated control
Lolium rigidum [20] = test: Herbicidal activity against Lolium rigidum accession A04 assessed as emergence rate applied at 1 times pre-emergence recommended rate relative to untreated control
Lolium rigidum [21] = test: Herbicidal activity against Lolium rigidum accession A15 assessed as fresh weight reduction applied at 1 times pre-emergence recommended rate relative to untreated control; design: scale not given: the % may be the effect or the level left
Lolium rigidum [22] = test: Herbicidal activity against Lolium rigidum accession A07 assessed as emergence rate applied at 1 times pre-emergence recommended rate relative to untreated control
Lolium rigidum [23] = test: Herbicidal activity against Lolium rigidum accession A02 assessed as emergence rate applied at 1 times pre-emergence recommended rate relative to untreated control
Lolium rigidum [24] = test: Herbicidal activity against Lolium rigidum accession A13 assessed as fresh weight reduction applied at 1 times pre-emergence recommended rate relative to untreated control; design: scale not given: the % may be the effect or the level left
Lolium rigidum [25] = test: Herbicidal activity against Lolium rigidum accession A07 assessed as fresh weight reduction applied at 1 times pre-emergence recommended rate relative to untreated control; design: scale not given: the % may be the effect or the level left
Lolium rigidum [26] = test: Herbicidal activity against Lolium rigidum accession A10 assessed as fresh weight reduction applied at 1 times pre-emergence recommended rate relative to untreated control; design: scale not given: the % may be the effect or the level left
Lolium rigidum [27] = test: Herbicidal activity against Lolium rigidum accession A04 assessed as fresh weight reduction applied at 1 times pre-emergence recommended rate relative to untreated control; design: scale not given: the % may be the effect or the level left
Lolium rigidum [28] = test: Herbicidal activity against Lolium rigidum accession A10 assessed as emergence rate applied at 1 times pre-emergence recommended rate relative to untreated control
Lolium rigidum [29] = test: Herbicidal activity against Lolium rigidum accession A08 assessed as fresh weight reduction applied at 1 times pre-emergence recommended rate relative to untreated control; design: scale not given: the % may be the effect or the level left
Lolium rigidum [30] = test: Herbicidal activity against Lolium rigidum accession A06 assessed as fresh weight reduction applied at 1 times pre-emergence recommended rate relative to untreated control; design: scale not given: the % may be the effect or the level left
Lolium rigidum [31] = test: Herbicidal activity against Lolium rigidum accession A10 assessed as emergence rate applied at recommended rate incorporated into the soil prior weed seedlings relative to untreated control
Lolium rigidum [32] = test: Herbicidal activity against Lolium rigidum accession A01 assessed as fresh weight reduction applied at recommended rate incorporated into the soil prior weed seedlings relative to untreated control; design: scale not given: the % may be the effect or the level left
Lolium rigidum [33] = test: Herbicidal activity against Lolium rigidum accession A14 assessed as fresh weight reduction applied at recommended rate incorporated into the soil prior weed seedlings relative to untreated control; design: scale not given: the % may be the effect or the level left
Lolium rigidum [34] = test: Herbicidal activity against Lolium rigidum accession A06 assessed as emergence rate applied at recommended rate incorporated into the soil prior weed seedlings relative to untreated control
Lolium rigidum [35] = test: Herbicidal activity against Lolium rigidum accession A06 assessed as fresh weight reduction applied at recommended rate incorporated into the soil prior weed seedlings relative to untreated control; design: scale not given: the % may be the effect or the level left
Lolium rigidum [36] = test: Herbicidal activity against Lolium rigidum accession A03 assessed as emergence rate applied at recommended rate incorporated into the soil prior weed seedlings relative to untreated control
Lolium rigidum [37] = test: Herbicidal activity against Lolium rigidum accession A02 assessed as emergence rate applied at recommended rate incorporated into the soil prior weed seedlings relative to untreated control
Lolium rigidum [38] = test: Herbicidal activity against Lolium rigidum accession A08 assessed as emergence rate applied at recommended rate incorporated into the soil prior weed seedlings relative to untreated control
Lolium rigidum [39] = test: Herbicidal activity against Lolium rigidum accession A05 assessed as emergence rate applied at recommended rate incorporated into the soil prior weed seedlings relative to untreated control
Lolium rigidum [40] = test: Herbicidal activity against Lolium rigidum accession A12 assessed as emergence rate applied at recommended rate incorporated into the soil prior weed seedlings relative to untreated control
Lolium rigidum [41] = test: Herbicidal activity against Lolium rigidum accession A09 assessed as emergence rate applied at recommended rate incorporated into the soil prior weed seedlings relative to untreated control
Lolium rigidum [42] = test: Herbicidal activity against Lolium rigidum accession A08 assessed as fresh weight reduction applied at recommended rate incorporated into the soil prior weed seedlings relative to untreated control; design: scale not given: the % may be the effect or the level left
Lolium rigidum [43] = test: Herbicidal activity against Lolium rigidum accession A04 assessed as fresh weight reduction applied at recommended rate incorporated into the soil prior weed seedlings relative to untreated control; design: scale not given: the % may be the effect or the level left
Lolium rigidum [44] = test: Herbicidal activity against Lolium rigidum accession A14 assessed as emergence rate applied at recommended rate incorporated into the soil prior weed seedlings relative to untreated control
Lolium rigidum [45] = test: Herbicidal activity against Lolium rigidum accession A03 assessed as fresh weight reduction applied at recommended rate incorporated into the soil prior weed seedlings relative to untreated control; design: scale not given: the % may be the effect or the level left
Lolium rigidum [46] = test: Herbicidal activity against Lolium rigidum accession A15 assessed as fresh weight reduction applied at recommended rate incorporated into the soil prior weed seedlings relative to untreated control; design: scale not given: the % may be the effect or the level left
Lolium rigidum [47] = test: Herbicidal activity against Lolium rigidum accession A13 assessed as emergence rate applied at recommended rate incorporated into the soil prior weed seedlings relative to untreated control
Lolium rigidum [48] = test: Herbicidal activity against Lolium rigidum accession A07 assessed as emergence rate applied at recommended rate incorporated into the soil prior weed seedlings relative to untreated control
Lolium rigidum [49] = test: Herbicidal activity against Lolium rigidum accession A12 assessed as fresh weight reduction applied at recommended rate incorporated into the soil prior weed seedlings relative to untreated control; design: scale not given: the % may be the effect or the level left
Lolium rigidum [50] = test: Herbicidal activity against Lolium rigidum accession A11 assessed as emergence rate applied at recommended rate incorporated into the soil prior weed seedlings relative to untreated control
Lolium rigidum [51] = test: Herbicidal activity against Lolium rigidum accession A09 assessed as fresh weight reduction applied at recommended rate incorporated into the soil prior weed seedlings relative to untreated control; design: scale not given: the % may be the effect or the level left
Lolium rigidum [52] = test: Herbicidal activity against Lolium rigidum accession A11 assessed as fresh weight reduction applied at recommended rate incorporated into the soil prior weed seedlings relative to untreated control; design: scale not given: the % may be the effect or the level left
Lolium rigidum [53] = test: Herbicidal activity against Lolium rigidum accession A15 assessed as emergence rate applied at recommended rate incorporated into the soil prior weed seedlings relative to untreated control
Lolium rigidum [54] = test: Herbicidal activity against Lolium rigidum accession A10 assessed as fresh weight reduction applied at recommended rate incorporated into the soil prior weed seedlings relative to untreated control; design: scale not given: the % may be the effect or the level left
Lolium rigidum [55] = test: Herbicidal activity against Lolium rigidum accession A01 assessed as emergence rate applied at recommended rate incorporated into the soil prior weed seedlings relative to untreated control
Lolium rigidum [56] = test: Herbicidal activity against Lolium rigidum accession A04 assessed as emergence rate applied at recommended rate incorporated into the soil prior weed seedlings relative to untreated control
Lolium rigidum [57] = test: Herbicidal activity against Lolium rigidum accession A07 assessed as fresh weight reduction applied at recommended rate incorporated into the soil prior weed seedlings relative to untreated control; design: scale not given: the % may be the effect or the level left
Lolium rigidum [58] = test: Herbicidal activity against Lolium rigidum accession A13 assessed as fresh weight reduction applied at recommended rate incorporated into the soil prior weed seedlings relative to untreated control; design: scale not given: the % may be the effect or the level left
Lolium rigidum [59] = test: Herbicidal activity against Lolium rigidum accession A05 assessed as fresh weight reduction applied at recommended rate incorporated into the soil prior weed seedlings relative to untreated control; design: scale not given: the % may be the effect or the level left
Lolium rigidum [60] = test: Herbicidal activity against Lolium rigidum accession A02 assessed as fresh weight reduction applied at recommended rate incorporated into the soil prior weed seedlings relative to untreated control; design: scale not given: the % may be the effect or the level left

Measured: Activity

CCCN(CCC)C(=O)SCc1ccccc1 [PROSULFOCARB]
0%: Lolium rigidum [2] | Lolium rigidum [4] | Lolium rigidum [5] | Lolium rigidum [6] | Lolium rigidum [7] | Lolium rigidum [8] | Lolium rigidum [13] | Lolium rigidum [14] | Lolium rigidum [18] | Lolium rigidum [19] | Lolium rigidum [22] | Lolium rigidum [23] | Lolium rigidum [28]
99%: Lolium rigidum [17]
1%: Lolium rigidum [9] | Lolium rigidum [20]
98%: Lolium rigidum [27]
100%: Lolium rigidum [1] | Lolium rigidum [3] | Lolium rigidum [10] | Lolium rigidum [11] | Lolium rigidum [12] | Lolium rigidum [15] | Lolium rigidum [16] | Lolium rigidum [21] | Lolium rigidum [24] | Lolium rigidum [25] | Lolium rigidum [26] | Lolium rigidum [29] | Lolium rigidum [30]

CCOP(=S)(OCC)SCSC(C)(C)C [TERBUFOS]
0%: Lolium rigidum [32] | Lolium rigidum [35] | Lolium rigidum [42] | Lolium rigidum [43] | Lolium rigidum [45] | Lolium rigidum [46] | Lolium rigidum [51] | Lolium rigidum [52] | Lolium rigidum [54] | Lolium rigidum [57] | Lolium rigidum [58] | Lolium rigidum [60]
97%: Lolium rigidum [34] | Lolium rigidum [37]
1%: Lolium rigidum [33] | Lolium rigidum [59]
93%: Lolium rigidum [40] | Lolium rigidum [48]
99%: Lolium rigidum [41] | Lolium rigidum [53] | Lolium rigidum [55]
100%: Lolium rigidum [38] | Lolium rigidum [47] | Lolium rigidum [56]
2%: Lolium rigidum [49]
94%: Lolium rigidum [44]
95%: Lolium rigidum [31] | Lolium rigidum [39]
98%: Lolium rigidum [36] | Lolium rigidum [50]
